In the supplement of paper PMC10307832:

How the values were obtained:
Assay in all cases: relative viability (nuclei count vs DMSO), 5 days (fraction); higher = more cells survive
Doxorubicin + Lapatinib = compound: COc1cccc2c1C(=O)c1c(O)c3c(c(O)c1C2=O)C[C@@](O)(C(=O)CO)C[C@@H]3O[C@H]1C[C@H](N)[C@H](O)[C@H](C)O1 [Doxorubicin] + CS(=O)(=O)CCNCc1ccc(-c2ccc3ncnc(Nc4ccc(OCc5cccc(F)c5)c(Cl)c4)c3c2)o1 [Lapatinib] (partner 2 µM)
Summary of the method: (§1)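 Lung cancer cell lines were seeded in 1536-well plates and dosed by pin tool the next day, with either a single drug or a fixed anchor-drug dose combined with five library-drug doses (not always all listed) spaced in √10 steps. Five days later, one step fixed the cells and stained their nuclei (final 0.05% Triton X-100, 1% formaldehyde, 1 ug/ml Hoechst), and nuclei were counted on 4× images. Relative viability is the nuclei count in treated wells divided by the count in vehicle wells, and each value is the median of duplicate plates.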

BAY61-3606 + Pictilisib = compound: COC1=C(C=C(C=C1)C2=CC3=NC=CN3C(=N2)NC4=C(C=CC=N4)C(=O)N)OC [BAY61-3606] + CS(=O)(=O)N1CCN(Cc2cc3nc(-c4cccc5[nH]ncc45)nc(N4CCOCC4)c3s2)CC1 [Pictilisib] (partner 1 µM)
Summary of the method: as §1

BAY61-3606 + Lapatinib = compound: COC1=C(C=C(C=C1)C2=CC3=NC=CN3C(=N2)NC4=C(C=CC=N4)C(=O)N)OC [BAY61-3606] + CS(=O)(=O)CCNCc1ccc(-c2ccc3ncnc(Nc4ccc(OCc5cccc(F)c5)c(Cl)c4)c3c2)o1 [Lapatinib] (partner 2 µM)
Summary of the method: as §1

Doxorubicin + Alpelisib = compound: COc1cccc2c1C(=O)c1c(O)c3c(c(O)c1C2=O)C[C@@](O)(C(=O)CO)C[C@@H]3O[C@H]1C[C@H](N)[C@H](O)[C@H](C)O1 [Doxorubicin] + Cc1nc(NC(=O)N2CCC[C@H]2C(N)=O)sc1-c1ccnc(C(C)(C)C(F)(F)F)c1 [Alpelisib] (partner 2 µM)
Summary of the method: as §1

Cell Line	relative viability (Doxorubicin + Lapatinib; first compound 0.001 µM)	relative viability (Doxorubicin + Lapatinib; first compound 0.003162 µM)	relative viability (Doxorubicin + Lapatinib; first compound 0.01 µM)	relative viability (Doxorubicin + Lapatinib; first compound 0.03162 µM)	relative viability (Doxorubicin + Lapatinib; first compound 0.1 µM)	relative viability (BAY61-3606 + Pictilisib; first compound 0.02 µM)	relative viability (BAY61-3606 + Pictilisib; first compound 0.06325 µM)	relative viability (BAY61-3606 + Pictilisib; first compound 0.2 µM)	relative viability (BAY61-3606 + Pictilisib; first compound 0.6325 µM)	relative viability (BAY61-3606 + Pictilisib; first compound 2 µM)	relative viability (BAY61-3606 + Lapatinib; first compound 0.02 µM)	relative viability (BAY61-3606 + Lapatinib; first compound 0.06325 µM)	relative viability (BAY61-3606 + Lapatinib; first compound 0.2 µM)	relative viability (BAY61-3606 + Lapatinib; first compound 0.6325 µM)	relative viability (BAY61-3606 + Lapatinib; first compound 2 µM)	relative viability (Doxorubicin + Alpelisib; first compound 0.001 µM)	relative viability (Doxorubicin + Alpelisib; first compound 0.003162 µM)	relative viability (Doxorubicin + Alpelisib; first compound 0.01 µM)	relative viability (Doxorubicin + Alpelisib; first compound 0.03162 µM)	relative viability (Doxorubicin + Alpelisib; first compound 0.1 µM)
LC-2-ad	0.838	0.958	0.935	0.697	0.255	0.405	0.429	0.29	0.468	0.235	1.02	0.97	0.951	0.898	0.979	0.892	0.87	0.924	0.859	0.724
NCI-H838	1.02	1.06	0.834	0.375	0.195	0.568	0.432	0.601	0.523	0.324	1.17	0.875	0.971	0.951	0.621	1	1.05	0.979	0.919	0.461
NCI-H1793		0.93	0.643	0.537	0.659	0.434	0.381	0.303	0.352	0.434	0.479	0.775	0.823	0.948	0.796		0.557	0.675	0.389	0.588
NCI-H358	0.503	0.441	0.334	0.195	0.207	0.385	0.327	0.333	0.321	0.167	0.435	0.378	0.477	0.378	0.288	0.796	0.916	0.569	0.19	0.154
NCI-H2087	0.749	1.01	0.815	0.759	0.529	1.05	0.937	0.865	0.878	0.666	0.747	1.08	0.994	1.11	1	1.2	1.15	1.19	0.984	0.862
NCI-H596	1.08	1.1	1.05	0.943	1.03	0.41	0.387	0.386	0.416	0.408	1.09	1.02	1.14	1.21	1.04	0.446	0.537	0.524	0.446	0.551
RERF-LC-KJ	0.905	0.817	0.863	0.759	0.815	0.532	0.411	0.59	0.577	0.441	0.935	0.741	0.859	0.814	0.709	0.815	0.885	0.893	0.675	0.719
NCI-H647	1.02	1.24	0.643	0.119	0.0876	0.622	0.297	0.435	0.404	0.365	1.13	1.25	1.12	1.11	0.86	1.15	1.08	0.98	0.288	0.163
